Data as given in the NIST ThermoML archive (doi:10.1021/je100068y).

Experiment: mn = molality of the nth substance listed, in mol/kg
Details: 101.33 kPa, Liquid

O [water] + NCC(=O)NCC(=O)O
m2 = 0
Details | mass density [kg/m3]
303.15 K | 995.55
313.15 K | 992.392

NCC(=O)NCC(=O)O [glycylglycine] + O
mass density [kg/m3]
Details | m1 = 0.0294 | m1 = 0.04517 | m1 = 0.06076 | m1 = 0.07901 | m1 = 0.1051 | m1 = 0.1496 | m1 = 0.2003 | m1 = 0.257 | m1 = 0.3022
298.15 K | 998.688 | 999.547 | 1000.42 | 1001.42 | 1002.86 | 1005.27 | 1007.99 | 1011.04 | 1013.4
303.15 K | 997.189 | 998.051 | 998.909 | 999.898 | 1001.33 | 1003.76 | 1006.46 | 1009.51 | 1011.87
308.15 K | 995.661 | 996.52 | 997.375 | 998.349 | 999.766 | 1002.15 | 1004.89 | 1007.83 | 1010.28
313.15 K | 994.003 | 994.856 | 995.681 | 996.677 | 998.065 | 1000.44 | 1003.12 | 1006.06 | 1008.41

CC(C)[C@H](NC(=O)CN)C(=O)O [glycyl-L-valine] + O
mass density [kg/m3]
Details | m1 = 0.02257 | m1 = 0.03982 | m1 = 0.06066 | m1 = 0.07858 | m1 = 0.1017 | m1 = 0.1513 | m1 = 0.1791 | m1 = 0.2026
298.15 K | 998.221 | 999.108 | 1000.17 | 1001.09 | 1002.26 | 1004.75 | 1006.13 | 1007.28
303.15 K | 996.723 | 997.606 | 998.679 | 999.59 | 1000.76 | 1003.24 | 1004.65 | 1005.79
308.15 K | 995.192 | 996.067 | 997.129 | 998.03 | 999.181 | 1001.63 | 1003.01 | 1004.11
313.15 K | 993.535 | 994.395 | 995.435 | 996.317 | 997.462 | 999.879 | 1001.22 | 1002.29

CC(C)C[C@H](NC(=O)CN)C(=O)O [glycyl-L-leucine] + O
mass density [kg/m3]
Details | m1 = 0.01944 | m1 = 0.02958 | m1 = 0.0395 | m1 = 0.04928 | m1 = 0.057 | m1 = 0.07128 | m1 = 0.09125 | m1 = 0.1001
298.15 K | 997.991 | 998.487 | 998.954 | 999.428 | 999.792 | 1000.49 | 1001.44 | 1001.85
303.15 K | 996.492 | 996.981 | 997.455 | 997.926 | 998.294 | 998.981 | 999.94 | 1000.35
308.15 K | 994.971 | 995.453 | 995.927 | 996.398 | 996.773 | 997.443 | 998.415 | 998.822
313.15 K | 993.308 | 993.787 | 994.248 | 994.705 | 995.068 | 995.712 | 996.655 | 997.07
